Measurements published in patent US7259004B1, “Endophytic streptomycetes from higher plants with biological activity” (Montana State University, priority 2002, dated 2007).
≈ marks a conversion by molar mass, not a printed value.

What was measured:
[1] = system: Pseudomonas aeruginosa ATCC 27853; test: disk diffusion assay; type: cell-based; conditions: kakadumycin B at 10 μg; control antibiotic; MHA 35° C.
[2] = system: Enterococcus faecalis ATCC 51299; test: disk diffusion assay; type: cell-based; conditions: for Disk Diffusion, Enterococcus faccalis (VRE) 51299: kakadumycin B at 10 μg, control antibiotic, MHA 35° C.
[3] = system: Acinetobacter sp. ATCC 49137; test: disk diffusion assay; type: cell-based; conditions: for Disk Diffusion, Acinetobacter spp. 49137: kakadumycin B at 10 μg, control antibiotic, MHA 35° C.
[4] = system: Streptococcus pneumoniae ATCC 49619; test: disk diffusion assay; type: cell-based; conditions: for Disk Diffusion, Streptococcus pneumoniae 49619: kakadumycin B at 10 μg, control antibiotic, MHA w/5% dsb 35° C. w/5% CO2
Bacillus anthracis K8902 = type: cell-based; conditions: 10 micrograms per disk; ciprofloxacin 5, vancomycin 30 micrograms per disk; 35° C.
[5] = system: Shigella dysenteriae ATCC 11835; test: disk diffusion assay; type: cell-based; conditions: kakadumycin B at 10 μg; control antibiotic; MHA 35° C.
[6] = system: Enterococcus faecium ATCC 49624; test: disk diffusion assay; type: cell-based; conditions: for diameter of the zone of inhibition, Enterococcus faecium ATCC 49624: 10 micrograms per disk, ciprofloxacin 5, vancomycin 30 micrograms per disk, 35° C.
[7] = system: Enterococcus faecium ATCC 51559; test: disk diffusion assay; type: cell-based; conditions: 10 micrograms per disk; ciprofloxacin 5, vancomycin 30 micrograms per disk; 35° C.
[8] = system: DNA synthesis in Bacillus subtilis; test: macromolecular synthesis whole cell assay, [3H]thymidine incorporation; type: cell-based; conditions: 1×MIC
[9] = system: Burkholderia cepacia ATCC 25416; test: disk diffusion assay; conditions: kakadumycin B at 10 μg; control antibiotic; MHA 35° C.
[10] = system: Klebsiella pneumoniae ATCC 10031; test: disk diffusion assay; conditions: MHA 35° C.
[11] = system: Staphylococcus aureus (MRSA) ATCC 33591; test: disk diffusion assay; conditions: MHA 35° C.
[12] = system: Enterococcus faecalis ATCC 29212; test: disk diffusion assay; type: cell-based
[13] = system: Staphylococcus aureus ATCC 29213; test: disk diffusion assay; type: cell-based
[14] = system: Neisseria gonnorhea ATCC 49226; test: disk diffusion assay; type: cell-based; conditions: 10 micrograms per disk; ciprofloxacin 5, vancomycin 30 micrograms per disk; GC agar with 1% growth supplement with 5% CO2
[15] = system: Staphylococcus aureus ATCC 33591 (MRSA); test: microbroth dilution MIC; type: cell-based; conditions: Staphylococcus aureus; Table 15
S. epidermis 12228 = test: microbroth dilution MIC; type: cell-based, Staphylococcus epidermidis; conditions: Staphylococcus epidermidis, ATCC12228; Table 15; read-out: MIC Staphylococcus epidermidis ATCC 12228
E. faecium 49624 = test: microbroth dilution MIC; type: cell-based, Enterococcus faecium; conditions: Enterococcus faecium, ATCC49624; Table 15; read-out: MIC Enterococcus faecium ATCC 49624
S. aureus 29213 = test: microbroth dilution MIC; type: cell-based, Staphylococcus aureus; conditions: Staphylococcus aureus, ATCC29213; Table 15; read-out: MIC Staphylococcus aureus ATCC 29213
[16] = system: Listeria monocytogenes 19114; test: microbroth dilution MIC; type: cell-based; conditions: Listeria monocytogenes, ATCC19114; Table 15; read-out: MIC Listeria monocytogenes ATCC 19114
[17] = system: Listeria monocytogenes 19115; test: microbroth dilution MIC; type: cell-based; conditions: Listeria monocytogenes, ATCC19115; Table 15; read-out: MIC Listeria monocytogenes ATCC 19115
[18] = system: Staphylococccus simulans 11631; test: microbroth dilution MIC; type: cell-based, Staphylococcus simulans; conditions: Staphylococcus simulans, ATCC11631; Table 15; read-out: MIC Staphylococcus simulans ATCC 11631
[19] = system: Staphylococccus aureus 27734; test: microbroth dilution MIC; type: cell-based, Staphylococcus aureus; conditions: Staphylococcus aureus, ATCC27734; Table 15; read-out: MIC Staphylococcus aureus ATCC 27734
[20] = system: Streptococcus pneumoniae 49619; test: microbroth dilution MIC; type: cell-based; conditions: Streptococcus pneumoniae, ATCC49619; Table 15; read-out: MIC Streptococcus pneumoniae ATCC 49619
[21] = system: Shigella dysenteriae ATCC 11835; test: microbroth dilution MIC; type: cell-based; conditions: ATCC11835, read-out: MIC Shigella dysenteriae ATCC 11835
[22] = system: Staphylococcus aureus GISA, ATCC 700787; test: microbroth dilution MIC; type: cell-based; conditions: ATCC700787, read-out: MIC Staphylococcus aureus GISA, ATCC 700787
[23] = system: Streptococcus pneumoniae ATCC 70674; test: microbroth dilution MIC; type: cell-based; conditions: ATCC70674, read-out: MIC Streptococcus pneumoniae ATCC 70674
[24] = system: Streptococcus pneumoniae ATCC 70676; test: microbroth dilution MIC; type: cell-based; conditions: ATCC70676, read-out: MIC Streptococcus pneumoniae ATCC 70676
B. subtilis 1A757 = test: microbe, parasite or virus in culture; type: cell-based, Bacillus subtilis
S. aureus ATCC 6583P = test: MIC with and without double stranded DNA; type: cell-based, Staphylococcus aureus; conditions: Staphylococcus aureus, ATCC6583P, read-out: MIC S. aureus ATCC 6583P
[25] = system: Cell wall synthesis in Bacillus subtilis; test: macromolecular synthesis whole cell assay, [3H]N-acetyl glucosamine incorporation; type: cell-based; conditions: 1×MIC
[26] = system: Staphyloccus aureus MH II Eli Lilly Co.; test: microbroth dilution MIC; conditions: Staphylococcus aureus, read-out: MIC Staphyloccus aureus MH II Eli Lilly Co.
[27] = system: Escherichia coli ATCC 25922; test: disk diffusion assay; type: cell-based; conditions: kakadumycin B at 10 μg; control antibiotic; MHA 35° C.
S. epidermis ATCC 12228 = test: disk diffusion assay; type: cell-based, Staphylococcus epidermidis; conditions: kakadumycin B at 10 μg; control antibiotic; MHA 35° C.
[28] = system: S. maltophilia ATCC 13637; test: disk diffusion assay; type: cell-based, Stenotrophomas maltophilia; conditions: kakadumycin B at 10 μg; control antibiotic; MHA 35° C.
[29] = system: Human Breast Cancer Epithelial BT-20; test: CellTiter 96 Aqueous Non-Radioactive Cell Proliferation Assay; type: cell-based; conditions: text of Examples 15, 18, 19
Description: (§1) The munumbicins were then tested against three human cancer cell lines (ATCC) and human primary mammary epithelial cells (HMECs) (Clonetics; Biowhittaker, Walkersville, Md.) using a CellTiter 96® Aqueous Non-Radioactive Cell Proliferation Assay kit from Promega (Madison, Wis.). The cell lines were A-549 (lung epithelial carcinoma, ATCC CCL-185), ME-180 (cervical epithelial epidermoid carcinoma, ATCC HTB-33), and BT-20 (breast epithelial cancer, ATCC HTB-19), and were grown in the media recommended by ATCC. The primary mammary cells were cultured as recommended by the manufacturer in mammary epithelial cell growth media (MEGM®). […] After seeding, the cells were incubated for five hours at 37° C. before addition of the munumbicins. Two-fold serial dilutions of the munumbicins were made in the culture medium, and a volume equal to that of the seeded cells for each dilution was added to three wells of cells. Each plate also contained some wells with cells plus medium only and some wells with medium only. […] The A-549 and ME-180 cells were incubated for 48 hours. […] The plates were incubated at 37° C. for one to four hours, and the OD490 was determined. The OD reading of all wells was corrected for background by subtracting the reading of wells containing medium only. […] Kakadumycin A was tested against three human cancer cell lines (ATCC) and human primary mammary epithelial cells using the procedure described above for the munumbicins. Kadadumycin B was tested against one human cancer cell line.

[30] = system: Human Primary Mammary Epithelial HMEC; test: as above; type: cell-based
Description: as §1

[31] = system: Salmonella typhimurium ATCC 13311; test: disk diffusion assay; conditions: kakadumycin B at 10 μg; control antibiotic; MHA 35° C.
[32] = system: Micrococcus luteus ATCC 9341; test: disk diffusion assay; conditions: kakadumycin B at 10 μg; control antibiotic; MHA 35° C.
[33] = system: Staphylococcus aureus (GISA) ATCC 700699; test: disk diffusion assay; conditions: kakadumycin B at 10 μg; control antibiotic; MHA 35° C.
[34] = 10 micrograms per disk, ciprofloxacin 5, vancomycin 30 micrograms per disk, 35° C.
[35] = A3-5-1 10 micrograms, Cip 5 micrograms
[36] = kakadumycin B at 10 μg, control antibiotic
[37] = kakadumycin B at 10 μg, control antibiotic, MHA 35° C.

O=C(O)c1cn(C2CC2)c2cc(N3CCNCC3)c(F)cc2c1=O [Ciprofloxacin, reference compound]
Disk Diffusion, Pseudomonas aeruginosa 27853 [1]: 30 mm (cipro) | diameter of the zone of inhibition, Enterococcus faecalis ATCC 51299 [2, 34]: 22 mm | Disk Diffusion, Enterococcus faccalis (VRE) 51299 [2]: 23 mm (cipro) | diameter of the zone of inhibition, Acinetobacter sp. ATCC 49137 ([3]; 10 micrograms per disk, ciprofloxacin 5, vancomycin 30 micrograms per disk, grown at 30° C.): 29 mm | Disk Diffusion, Acinetobacter spp. 49137 [3]: 26 mm (cipro) | Disk Diffusion, Streptococcus pneumoniae 49619 [4]: 24 mm (cipro) | diameter of the zone of inhibition, Bacillus anthracis K8902 (Bacillus anthracis K8902): 16 mm | Disk Diffusion, Shigella dysenteriae 11835 [5]: 24 mm (cipro) | diameter of the zone of inhibition, Enterococcus faecium ATCC 49624 [6]: 15 mm | diameter of the zone of inhibition, Enterococcus faecium ATCC 51559 [7]: 13 mm | % [3H]thymidine (DNA synthesis) incorporation of that of the untreated culture ([8]; 5 min): 36% | % [3H]thymidine (DNA synthesis) incorporation of that of the untreated culture ([8]; 10 min): 35% | Disk Diffusion, Burkholderia cepacia 25416 [9]: 24 mm (cipro) | Disk Diffusion, Klebsiella pneumoniae 10031 [10, 35]: Cip (5 micro-)-34 mm | Disk Diffusion, Klebsiella pneumoniae 10031 [10, 36]: 32 mm (cipro) | Disk Diffusion, Staphylococcus aureus (MRSA) 33591 [11, 35]: Cip (5 micro-)-26 mm | Disk Diffusion, Staphylococcus aureus (MRSA) 33591 [11, 36]: 27 mm (cipro)

CN[C@H](CC(C)C)C(=O)N[C@H]1C(=O)N[C@@H](CC(N)=O)C(=O)N[C@H]2C(=O)N[C@H]3C(=O)N[C@H](C(=O)N[C@H](C(=O)O)c4cc(O)cc(O)c4-c4cc3ccc4O)[C@H](O)c3ccc(c(Cl)c3)Oc3cc2cc(c3O[C@@H]2O[C@H](CO)[C@@H](O)[C@H](O)[C@H]2O[C@H]2C[C@](C)(N)[C@H](O)[C@H](C)O2)Oc2ccc(cc2Cl)[C@H]1O [Vancomycin, reference compound]
diameter of the zone of inhibition, Enterococcus faecalis ATCC 29212 [12, 34]: 18 mm | diameter of the zone of inhibition, Staphylococcus aureus ATCC 29213 [13, 34]: 15 mm | diameter of the zone of inhibition, Neisseria gonnorhea ATCC 49226 [14]: 13 mm | diameter of the zone of inhibition, Streptococcus pneumoniae ATCC 49619 ([4]; 10 micrograms per disk, ciprofloxacin 5, vancomycin 30 micrograms per disk, MHA with 5% dsb. and 5% CO2): 20 mm | diameter of the zone of inhibition, Enterococcus faecium ATCC 49624 [6]: 22 mm | diameter of the zone of inhibition, Enterococcus faecium ATCC 51559 [7]: 0 mm | MIC [15]: 2 µg/mL (≈ 1.38 µM) | MIC (S. epidermis 12228): 1 µg/mL (≈ 0.69 µM) | MIC (E. faecium 49624): 0.5 µg/mL (≈ 0.345 µM) | MIC (S. aureus 29213): 1 µg/mL (≈ 0.69 µM) | MIC [16]: 1 µg/mL (≈ 0.69 µM) | MIC [17]: 1 µg/mL (≈ 0.69 µM) | MIC [18]: 1 µg/mL (≈ 0.69 µM) | MIC [19]: 1 µg/mL (≈ 0.69 µM) | MIC [20]: 0.125 µg/mL (≈ 0.0863 µM) | MIC [21]: 2 µg/mL (≈ 1.38 µM) | MIC [22]: 8 µg/mL (≈ 5.52 µM) | MIC [23]: 0.25 µg/mL (≈ 0.173 µM) | MIC [24]: 0.25 µg/mL (≈ 0.173 µM) | 1×MIC against Bacillus subtilis (B. subtilis 1A757): 0.25 micrograms/ml | increase of MICs when DNA was added (B. subtilis 1A757): not affected | MIC (B. subtilis 1A757; Bacillus subtilis, 1A757, read-out: MIC B. subtilis 1A757): 0.125 µg/mL (≈ 0.0863 µM) | MIC (S. aureus ATCC 6583P): 0.5 µg/mL (≈ 0.345 µM) | % [3H]N-acetyl glucosamine (Cell wall synthesis) incorporation of that of the untreated culture ([25]; 5 min): 33% | % [3H]N-acetyl glucosamine (Cell wall synthesis) incorporation of that of the untreated culture ([25]; 10 min): 41% | MIC [26]: 0.06 µg/mL (≈ 0.0414 µM)

kakadumycin B
Disk Diffusion, Pseudomonas aeruginosa 27853 [1]: R | Disk Diffusion, Enterococcus faecalis 29212 [12, 37]: 20 mm | Disk Diffusion, Enterococcus faccalis (VRE) 51299 [2]: 21 mm | Disk Diffusion, Staphylococcus aureus 29213 [13, 37]: 17 mm | Disk Diffusion, Acinetobacter spp. 49137 [3]: 11 mm | Disk Diffusion, Streptococcus pneumoniae 49619 [4]: 22 mm | Disk Diffusion, Escherichia coli 25922 [27]: 8 mm | Disk Diffusion, Staphylococcus epidermidis 12228 (S. epidermis ATCC 12228): 23 mm | Disk Diffusion, Stenotrophomas maltophilia 13637 [28]: 13 mm | Disk Diffusion, Shigella dysenteriae 11835 [5]: 10 mm | Disk Diffusion, Enterococcus faecium 49624 [6, 37]: 22 mm | IC50 human breast cancer cell line BT 20 [29]: 0.008 µg/mL | IC50 cytotoxicity, human mammary epithelial cells [30]: 10.5±1.4 nanograms/ml | concentration causing detectable lysis of human red blood cells (human red blood cells): > 80 micrograms/ml | Disk Diffusion, Burkholderia cepacia 25416 [9]: R | Disk Diffusion, Klebsiella pneumoniae 10031 [10, 36]: R | Disk Diffusion, Salmonella typhimurium 13311 [31]: R | Disk Diffusion, Micrococcus luteus 9341 [32]: 28 mm | Disk Diffusion, Staphylococcus aureus (MRSA) 33591 [11, 36]: 22 mm | Disk Diffusion, Staphylococcus aureus (GISA) 700699 [33]: 22 mm
